From US20030017186A1, “Carboxylic acid fluorides as pesticides” (priority 1999, published 2003)

Key:
[1] = test system: House longhorn beetle (Hylotrupes bajulus) larvae; test: Fumigation test in glass vessel, house longhorn beetle larvae in wood blocks; assay type: in vivo; conditions: HYLOBA larvae in wood blocks
[2] = test system: Mealworm beetle (Tenebrio molitor); test: Fumigation test in glass vessel, mealworm beetles; assay type: in vivo; conditions: TENEMO beetles
[3] = test system: Mealworm beetle (Tenebrio molitor) larvae; test: Fumigation test in glass vessel, mealworm beetle larvae; assay type: in vivo; conditions: TENEMO larvae
[4] = test system: Rice weevil (Sitophilus oryzae); test: Fumigation test in glass vessel, rice weevils; assay type: in vivo; conditions: SITTOR beetles
[5] = test system: Rice weevil (Sitophilus oryzae) larvae; test: Fumigation test in glass vessel, rice weevil larvae in grain seeds; assay type: in vivo; conditions: SITTOR larvae in grain seeds
From the text: a2) Rice weevil (Sitophilus oryzae)=SITTOR
(§1) The test organisms, separated by species, were placed into a glass vessel measuring 30 cm×30 cm×60 cm, which was sealed with a glass lid so as to be airtight. The adults and the larvae of the mealworm beetle (Tenebrio molitor) and the broad-horned flour beetle (Gnathocerus cornutus) were placed into small glass vessels approximately 5 cm in diameter, which were closed with a gauze lid and in which they could freely move about. The larvae of the rice weevil had burrowed into seeds of grain. The wood pest larvae were inserted into small blocks of wood measuring 5 cm×2.5 cm×2 cm. The openings were sealed with wads of cotton wool. Only one each of the larvae of the house longhorn beetle (Hylotrupes bajulus) was inserted into a piece of wood, while 6-8 larvae of the common furniture beetle (Anobium punctatum) were inserted into each piece of wood.
(§2) The respective gas was then introduced into the fumigation vessel through a gas line from a gas tank that contained the specified amount of gas. After a defined time period, the fumigation vessel was purged with compressed air. The discharged gas was purified by an attached gas scrubber.
(§3) The beetles were observed until they died. This point was recorded for each species. The larvae of the wood pests as well as the larvae of the rice weevil (Sitophilus oryzae) had to be picked out of the wood or the grain to check their condition. If any of the animals were still alive, the wooden test blocks remaining in the vessel were fumigated again and were reexamined after the corresponding time span had elapsed. The same number of animals in the untreated control was also checked at each point.
(§4) The vitality of the animals was checked at certain time intervals. The beetles could be observed through the fumigation vessel. This was also true for the larvae of the mealworm beetle and the broad-horned flour beetle. The wooden test blocks of the wood pest larvae were opened with hammer and chisel. Tweezers were used to pull the rice weevil larvae out of the grain seeds. The exact time intervals and the number of the evaluated pests were documented in the test results.

[6] = test system: Broad-horned flour beetle (Gnathocerus cornutus); test: Fumigation test in glass vessel, broad-horned flour beetles; assay type: in vivo; conditions: GNATCO beetles
[7] = test system: Broad-horned flour beetle (Gnathocerus cornutus) larvae; test: Fumigation test in glass vessel, broad-horned flour beetle larvae; assay type: in vivo; conditions: GNATCO larvae
[8] = test system: Saw-toothed grain beetle (Oryzaephilus surinamensis); test: Fumigation test in glass vessel, saw-toothed grain beetles; assay type: in vivo; conditions: ORYZSA beetles
Incisitermes tabogae = test: Termite control fumigation test, Incisitermes tabogae; assay type: in vivo; conditions: Example 6
From the text: c) American drywood termites (Cryptotermes brevis)=CRYPBR, and Incisitermes tabogae=INCITA
as §1, §2, §3, §4

[9] = test system: wood pests (house longhorn beetle, common furniture beetle); test: Fumigation test, wood pests; assay type: in vivo, Hylotrupes bajulus, Anobium punctatum
From the text: as §1, §2, §3, §4

wood and storage pests = test: Fumigation test, wood and storage pests (overall statements); assay type: in vivo
From the text: as §1, §2, §3, §4

[10] = Example 5, ACF 50.6/48.2/51.4 g/m^3, SF 47.4/44.6/41 g/m^3 (1st/2nd/3rd fumigation), 23/23/22° C.
[11] = Example 7, ACF 53.0/54.6/0 g/m^3, second gas (SF) 43.6/41.4/39.8 g/m^3 (1st/2nd/3rd fumigation), 20.0/20.2/19.8 C.
[12] = Example 4, gas 36.5 g/m^3, 19.3° C., 54% rel. air humidity
[13] = INCITA termites, ACF 50.0/53.8 g/m^3, SF 47.8/44.8 g/m^3 (1st/2nd fumigation), 23.7/24° C.

CC(=O)F [ACF, acetyl fluoride] was tested, and the “Number alive, 1 hr. after Start of Fumigation” value (“Number alive, 1 hr. after Start” below) [1, 10] was 0, the “Number alive, 3 hrs. after Start of Fumigation” value [1, 10] was 1 and the “Number alive, 6 hrs after Start of Fumigation” value [1, 10] was 0. For the same compound, the “Number dead, 1 hr. after Start of Fumigation” value (“Number dead, 1 hr. after Start” below) [1, 10] was 4, the “Number dead, 3 hrs. after Start of Fumigation” value [1, 10] was 2 and the “Number dead, 6 hrs after Start of Fumigation” value [1, 10] was 7. The “Number alive, 1 hr. after 1st Fumigation” value [1, 11] was 2, the “Number alive, 3 hrs. after 1st Fumigation” value [1, 11] was 0 and the “Number dead, 1 hr. after 1st Fumigation” value [1, 11] was 3. The “Number dead, 3 hrs. after 1st Fumigation” value [1, 11] was 10, the “Number alive, 1 hr. after Start” value [2, 12] was 0 and the “Number dead, 1 hr. after Start” value [2, 12] was 10. The “Number alive, 30 min. after Start of Fumigation” value [2, 10] was 0, the “Number dead, 30 min. after Start of Fumigation” value (shortened to “Number dead, 30 min. after Start”) [2, 10] was 10 and the “Number alive, 30 min. after 1st Fumigation” value [2, 11] was 0. The “Number dead, 30 min. after 1st Fumigation” value [2, 11] was 10, the “Number alive, 1 hr. after Start” value [3, 12] was 5 and the “Number alive, 2 hrs. after Start of Fumigation” value [3, 12] was 0. The “Number dead, 1 hr. after Start” value [3, 12] was 5, the “Number dead, 2 hrs. after Start of Fumigation” value [3, 12] was 10 and the “Number alive, 30 min. after Start of Fumigation” value [3, 10] was 0. For the same compound, the “Number dead, 30 min. after Start” value [3, 10] was 10, the “Number alive, 30 min. after 1st Fumigation” value [3, 11] was 5 and the “Number alive, 1 hr. after 1st Fumigation” value [3, 11] was 0. For the same compound, the “Number dead, 30 min. after 1st Fumigation” value [3, 11] was 5, the “Number dead, 1 hr. after 1st Fumigation” value [3, 11] was 10 and the “Number alive, 1 hr. after Start” value [4, 12] was 0. The “Number dead, 1 hr. after Start” value [4, 12] was 25, the “Number alive, 30 min. after Start of Fumigation” value [4, 10] was 0 and the “Number dead, 30 min. after Start” value [4, 10] was 15. The “Number alive, 30 min. after 1st Fumigation” value [4, 11] was 0, the “Number dead, 30 min. after 1st Fumigation” value [4, 11] was 15 and the “Number alive, 24 hrs. after Start of Fumigation” value [5, 12] was 0. For the same compound, the “Number dead, 24 hrs. after Start of Fumigation” value [5, 12] was 25, the “Number alive, 1 hr. after Start” value [5, 10] was 0 and the “Number dead, 1 hr. after Start” value [5, 10] was 15. The “Number alive, 1 hr. after Start” value [6, 12] was 13, the “Number alive, 2 hrs. after Start of Fumigation” value [6, 12] was 3 and the “Number alive, 12 hrs. after Start of Fumigation” value [6, 12] was 0. The “Number dead, 1 hr. after Start” value [6, 12] was 12, the “Number dead, 2 hrs. after Start of Fumigation” value [6, 12] was 22 and the “Number dead, 12 hrs. after Start of Fumigation” value [6, 12] was 25. For the same compound, the “Number alive, 30 min. after Start of Fumigation” value [6, 10] was 0, the “Number dead, 30 min. after Start” value [6, 10] was 15 and the “Number alive, 30 min. after 1st Fumigation” value [6, 11] was 0. For the same compound, the “Number dead, 30 min. after 1st Fumigation” value [6, 11] was 15, the “Number alive, 1 hr. after Start” value [7, 12] was 0 and the “Number dead, 1 hr. after Start” value [7, 12] was 25. For the same compound, the “Number alive, 30 min. after Start of Fumigation” value [7, 10] was 0, the “Number dead, 30 min. after Start” value [7, 10] was 15 and the “Number alive, 30 min. after 1st Fumigation” value [7, 11] was 0. The “Number dead, 30 min. after 1st Fumigation” value [7, 11] was 15, the “Number alive, 1 hr. after Start” value [8, 12] was 0 and the “Number dead, 1 hr. after Start” value [8, 12] was 25. The “Number alive, 30 min. after Start of Fumigation” value [8, 10] was 0, the “Number dead, 30 min. after Start” value [8, 10] was 15 and the “Number alive, 30 min. after 1st Fumigation” value [8, 11] was 0. The “Number dead, 30 min. after 1st Fumigation” value [8, 11] was 15, the “Number of Incisitermes still alive on reexamination after 24-hour observation period” value (Incisitermes tabogae; out of 30 animals fumigated 1 hour, then 24-hour observation) was 3 and the “Number alive, 30 min. after 1st Fumigation” value (Incisitermes tabogae; [13]) was 90. For the same compound, the “Number alive, 1 hr. after 1st Fumigation” value (Incisitermes tabogae; [13]) was 30, the “Number alive, 3 hrs. after 1st Fumigation” value (Incisitermes tabogae; [13]) was 0 and the “Number dead, 30 min. after 1st Fumigation” value (Incisitermes tabogae; [13]) was 0. The “Number dead, 1 hr. after 1st Fumigation” value (Incisitermes tabogae; [13]) was 0, the “Number dead, 3 hrs. after 1st Fumigation” value (Incisitermes tabogae; [13]) was 60 and the “Effectiveness against wood pests” value ([9]; Conclusion, especially at temperatures in excess of 20° C.) was “very effective”. For the same compound, the “Condition of the larvae of the wood pests after 24 hours” value ([9]; Example 4, house longhorn beetle larvae and 2 common furniture beetle larvae, gas 36.5 g/m^3, 19.3° C., evaluated only after 24 hours) was “dead”, the “Effectiveness against exposed beetles and larvae” value (wood and storage pests; Conclusion of Examples 1-5) was “very effective” and the “Comparison of action on wood and storage pests” value (wood and storage pests; Example 7, against several of the pest species tested) was “superior to chlorodifluoroacetyl fluoride”.
